# In patent US5958918A, “Substituted (sulfinic acid, sulfonic acid, sulfonylamino or sulfinylamino) N-[(aminominomethyl)phenylalkyl]-azaheterocyclylamide compounds” (Rhone-Poulenc Rorer Pharmaceuticals Inc., priority 1997, dated 1999):
# Structures can show the parent of a compound that is named as a salt.
# Target: factor Xa (Homo sapiens, UniProt P00742)
# Assay: Factor Xa inhibitor enzyme assay (purified enzyme, chromogenic peptide-p-nitroanilide substrate; apparent Ki by Cheng-Prusoff)
# Assay type: biochemical
# Experimental: Factor Xa Inhibitor: Enzyme Assay Methods
# All enzyme assays are carried out at room temperature in 96-well microtiter plates using a final enzyme concentration of 1 nM. The concentrations of factor Xa and thrombin are determined by active site titration and the concentrations of all other enzymes are based on the protein concentration supplied by the manufacturer. […] Compound dilutions are added to wells containing buffer and enzyme and pre-equilibrated for between 5 and 30 minutes. […] Under these conditions, less than 10% of the substrate is utilized in all assays. […] The apparent Ki values are then determined according to the Cheng-Prusoff equation (IC50=Ki [1+[S]/Km]) assuming competitive inhibition kinetics.
# Sequence of factor Xa (P00742 235-488 limits assumed): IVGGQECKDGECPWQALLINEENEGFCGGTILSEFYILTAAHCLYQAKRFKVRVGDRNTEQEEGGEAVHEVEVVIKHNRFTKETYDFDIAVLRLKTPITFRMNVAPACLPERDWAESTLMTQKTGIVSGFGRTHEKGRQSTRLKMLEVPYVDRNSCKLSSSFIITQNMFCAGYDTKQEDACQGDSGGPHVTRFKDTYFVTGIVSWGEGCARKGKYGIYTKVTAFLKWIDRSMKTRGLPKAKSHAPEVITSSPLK
# Sequence of factor Xa (P00742 41-179 partner limits assumed): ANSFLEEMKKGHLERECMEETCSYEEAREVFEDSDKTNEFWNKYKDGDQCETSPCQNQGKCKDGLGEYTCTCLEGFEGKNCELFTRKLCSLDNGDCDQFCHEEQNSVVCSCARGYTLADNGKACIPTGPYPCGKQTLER
smiles,measurement,value
"N=C(N)c1cccc(CN2CC[C@H](NS(=O)(=O)c3ccc(-c4ccccn4)s3)C2=O)c1 [Example 7, 5-Pyrid-2-ylthiophene-2-sulfonic acid {1-[3-(aminoiminomethyl)benzyl]-2-oxopyrrolidin-3-(S)-yl}amide trifluoroacetate]",Ki,0.1 µM
